The text below walks through data of ChEMBL document CHEMBL1128565, “Aspartyl alpha-((diphenylphosphinyl)oxy)methyl ketones as novel inhibitors of interleukin-1 beta converting enzyme. Utility of the diphenylphosphinic acid leaving group for the inhibition of cysteine proteases” (J Med Chem, 1995).

For test [1], the target named is Cathepsin B (Homo sapiens) (UniProt P07858). Briefly: Inhibition of Cathepsin B at pH 6.5 and 25 degrees Centigrade.
For test [2], the target named is T1, Calpain-1 catalytic subunit (Homo sapiens) (UniProt P07384).
T1 sequence (whole entry): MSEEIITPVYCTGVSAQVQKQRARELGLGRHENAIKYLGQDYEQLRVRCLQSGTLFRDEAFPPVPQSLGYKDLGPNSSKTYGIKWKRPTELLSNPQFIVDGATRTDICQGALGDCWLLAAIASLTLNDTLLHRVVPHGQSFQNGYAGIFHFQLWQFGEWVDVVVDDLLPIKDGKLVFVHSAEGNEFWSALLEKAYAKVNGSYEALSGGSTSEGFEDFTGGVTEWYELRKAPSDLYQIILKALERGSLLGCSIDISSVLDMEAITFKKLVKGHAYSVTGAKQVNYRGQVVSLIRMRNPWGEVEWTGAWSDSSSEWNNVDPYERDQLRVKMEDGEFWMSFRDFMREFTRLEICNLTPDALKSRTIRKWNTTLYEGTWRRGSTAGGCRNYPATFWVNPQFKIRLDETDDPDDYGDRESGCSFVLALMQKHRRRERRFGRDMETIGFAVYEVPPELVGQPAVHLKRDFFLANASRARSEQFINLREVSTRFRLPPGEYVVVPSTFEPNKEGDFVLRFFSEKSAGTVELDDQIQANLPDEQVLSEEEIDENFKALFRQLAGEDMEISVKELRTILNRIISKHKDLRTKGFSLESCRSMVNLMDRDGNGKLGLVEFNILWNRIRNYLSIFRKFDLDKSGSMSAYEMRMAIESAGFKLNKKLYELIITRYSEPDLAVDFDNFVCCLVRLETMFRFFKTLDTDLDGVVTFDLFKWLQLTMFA
Kind of test: Inhibition of Human erythrocyte calpain 1 using a continuous assay at pH 7.5 and 8 degrees Centigrade.

The target in test [3] is T1, Calpain-1 catalytic subunit (Homo sapiens). Briefly: Inhibition of Human erythrocyte calpain 1 using a continuous assay at pH 7.5 and 8 degrees Centigrade.
Another test has as its target T2, Caspase-1 (Homo sapiens) (UniProt P29466).
T2 sequence (whole entry): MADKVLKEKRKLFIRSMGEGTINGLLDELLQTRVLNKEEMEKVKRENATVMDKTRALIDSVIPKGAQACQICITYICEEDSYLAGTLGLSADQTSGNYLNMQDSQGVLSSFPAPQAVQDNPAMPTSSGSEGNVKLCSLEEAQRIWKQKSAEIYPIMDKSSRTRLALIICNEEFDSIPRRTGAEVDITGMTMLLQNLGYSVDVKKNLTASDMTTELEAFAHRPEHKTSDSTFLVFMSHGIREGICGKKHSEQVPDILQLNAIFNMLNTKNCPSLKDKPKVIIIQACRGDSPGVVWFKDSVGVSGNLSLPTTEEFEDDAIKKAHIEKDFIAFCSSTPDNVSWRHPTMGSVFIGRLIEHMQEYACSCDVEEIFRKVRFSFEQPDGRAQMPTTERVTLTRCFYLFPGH
Kind of test: Inhibition of interleukin-1-beta converting enzyme at pH 7.4, 37 degree C.

Test [4] has as its target Cathepsin B (Homo sapiens) (UniProt P07858). Kind of test: Inhibition of Cathepsin B at pH 6.5 and 360000 (1/M 1/s) at 8 degrees Centigrade.
Test [5] has the same target. Briefly: Inhibition of Cathepsin B at pH 6.5 and 250 (1/M 1/s) 8 degrees Centigrade.
Test [6] shares this target. Kind of test: Inhibition of Cathepsin B at 8 degrees Centigrade.
The target in test [7] is Procathepsin L (Homo sapiens) (UniProt P07711). Briefly: Inhibitory activity against Cathepsin L at 8 degrees Centigrade.
Chain of Procathepsin L (Homo sapiens) (P07711 114-333 limits assumed): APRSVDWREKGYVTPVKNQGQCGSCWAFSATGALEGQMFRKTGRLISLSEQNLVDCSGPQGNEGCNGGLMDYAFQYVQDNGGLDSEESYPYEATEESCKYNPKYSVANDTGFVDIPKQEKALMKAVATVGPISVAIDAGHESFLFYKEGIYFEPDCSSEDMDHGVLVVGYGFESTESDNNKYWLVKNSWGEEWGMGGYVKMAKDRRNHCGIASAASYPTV

Each structure is given as a SMILES string.

With `CC(C)C[C@@H](NC(=O)OCc1ccccc1)C(=O)N[C@@H](Cc1ccccc1)C(=O)COc1cc(C(F)(F)F)nn1-c1ccccc1`, the K obs / 1 in test [1] and in test [2] was < 500 M⁻¹ s⁻¹ throughout.

`C[C@H](NC(=O)[C@@H](Cc1ccccc1)NC(=O)OCc1ccccc1)C(=O)COC(=O)c1c(Cl)cccc1Cl`: the K obs / 1 in test [3] is 300 M⁻¹ s⁻¹; at Caspase-1 (Homo sapiens) it was < 500 M⁻¹ s⁻¹; in test [4], 1.5e+06 M⁻¹ s⁻¹.

`CC(C)[C@@H](NC(=O)OCc1ccccc1)C(=O)N[C@@H](CC(=O)O)C(=O)CO[PH](=O)c1ccccc1` (some centres not stated): the K obs / 1 on Caspase-1 (Homo sapiens) is < 500 M⁻¹ s⁻¹.

As for `O=C(O)C[C@H](NC(=O)OCc1ccccc1)C(=O)COP(=O)(c1ccccc1)c1ccccc1`, on Caspase-1 (Homo sapiens), the K obs / 1 is 11800 M⁻¹ s⁻¹.

In the case of `CC(C)[C@@H](NC(=O)OCc1ccccc1)C(=O)N[C@@H](CC(=O)O)C(=O)COP(C)(C)=O`, the K obs / 1 at Caspase-1 (Homo sapiens) came to 12300 M⁻¹ s⁻¹.

The compound `CC(C)[C@@H](NC(=O)OCc1ccccc1)C(=O)N[C@@H](CC(=O)O)C(=O)COC(=O)c1c(Cl)cccc1Cl` returned a K obs / 1 at Caspase-1 (Homo sapiens) of 30000 M⁻¹ s⁻¹.

On to `C[C@H](NC(=O)[C@@H](Cc1ccccc1)NC(=O)OCc1ccccc1)C(=O)COP(=O)(c1ccccc1)c1ccccc1`, for which the K obs / 1 was < 500 M⁻¹ s⁻¹ on Caspase-1 (Homo sapiens) and 400000 M⁻¹ s⁻¹ in test [1].

`CC(C)[C@H](NC(=O)OCc1ccccc1)C(=O)N[C@@H](C)C(=O)N[C@@H](CC(=O)O)C(=O)COP(=O)(c1ccccc1)c1ccccc1` yielded a K obs / 1 in test [1] of 1700 M⁻¹ s⁻¹.

Consider `CC(C)[C@H](NC(=O)OCc1ccccc1)C(=O)N[C@@H](C)C(=O)N[C@@H](CC(=O)O)C(=O)COP(=O)(c1ccc(Cl)cc1)c1ccc(Cl)cc1`, for which the K obs / 1 at Caspase-1 (Homo sapiens) was found to be 230000 M⁻¹ s⁻¹.

For `CC(C)C[C@@H](NC(=O)OCc1ccccc1)C(=O)N[C@@H](Cc1ccccc1)C(=O)COC(=O)c1c(Cl)cccc1Cl`, the K obs / 1 in test [5] was < 1000 M⁻¹ s⁻¹; in test [2], 11400 M⁻¹ s⁻¹.

For `CC(C)[C@@H](NC(=O)OCc1ccccc1)C(=O)N[C@@H](CC(=O)O)C(=O)COP(=O)(c1ccc(Cl)cc1)c1ccc(Cl)cc1`, on Caspase-1 (Homo sapiens), the K obs / 1 came to 77300 M⁻¹ s⁻¹.

Consider `CC(C)C[C@@H](NC(=O)OCc1ccccc1)C(=O)N[C@@H](Cc1ccccc1)C(=O)COP(=O)(c1ccccc1)c1ccccc1`, for which the K obs / 1 in test [3] is 10000 M⁻¹ s⁻¹; on Caspase-1 (Homo sapiens), < 500 M⁻¹ s⁻¹; in test [1] it was < 500 M⁻¹ s⁻¹.

In the case of `CC(C)[C@@H](NC(=O)OCc1ccccc1)C(=O)N[C@@H](CC(=O)O)C(=O)COc1cc(C(F)(F)F)nn1-c1ccccc1`, the K obs / 1 at Caspase-1 (Homo sapiens) was 20000 M⁻¹ s⁻¹; in test [1] it was < 500 M⁻¹ s⁻¹.

On to `CC(C)C[C@@H](NC(=O)[C@@H](C)NC(=O)OCc1ccccc1)C(=O)N[C@H](Cc1ccccc1)C(=O)COC(=O)c1c(F)cccc1F`, for which the K obs / 1 in test [3] worked out at 31000 M⁻¹ s⁻¹; in test [6] it was 100 M⁻¹ s⁻¹; in test [7] it was 300 M⁻¹ s⁻¹.

Turning to `C[C@H](NC(=O)[C@@H](Cc1ccccc1)NC(=O)OCc1ccccc1)C(=O)COc1cc(C(F)(F)F)nn1-c1ccccc1`, the K obs / 1 was < 500 M⁻¹ s⁻¹ on Caspase-1 (Homo sapiens), 2300 M⁻¹ s⁻¹ in test [1] and < 500 M⁻¹ s⁻¹ in test [2].

On to `CC(C)[C@@H](NC(=O)OCc1ccccc1)C(=O)N[C@@H](CC(=O)O)C(=O)COP(=O)(c1ccccc1)c1ccccc1`, for which the values for the K obs / 1 (at Caspase-1 (Homo sapiens); in test [1]) were 50200 M⁻¹ s⁻¹ and < 500 M⁻¹ s⁻¹, respectively.

Take `CC(C)C[C@@H](NC(=O)[C@@H](C)NC(=O)OCc1ccccc1)C(=O)N[C@H](Cc1ccccc1)C(=O)COC(=O)c1c(F)ccc(OCCN2CCOCC2)c1F`: the figures for the K obs / 1 in test [3], in test [6] and in test [7] were 32000 M⁻¹ s⁻¹, 400 M⁻¹ s⁻¹ and 28000 M⁻¹ s⁻¹, respectively.
